Test results as given in patent US8415497B2, “N-halogenated amino compounds and derivatives” (Novabay Pharmaceuticals, Inc., priority 2006, dated 2013).
Marks after values point to notes of the source that are not given here.

Tests used:
Assay type in all cases: cell-based
[1] = Concentration dependence of antimicrobial activity; details: 0.9% saline at pH 3.5
Source text: (§1) The results of our discovery provide support for antimicrobial activity of 3-(4-chlorophenyl)-2-(dichloroamino)-2-methylpropane-1-sulfonic acid in 0.9% saline at pH 3.5. […] In contrast, cell toxicity is seen at a 1000-fold higher range in the mM range.

cells = assay: Cell toxicity, XTT assay
Source text: as §1

[2] = tested on: Pseudomonas aeruginosa (MCC 4438); assay: Antimicrobial activity, minimum biocidal concentration; details: P. aeruginosa MCC 4438 (#), 1 h
Experimental: (§2) To determine antimicrobial activity, we use Escherichia coli (ATCC 25922), Staphylococcus aureus (ATCC 29213), Pseudomonas aeruginosa (ATCC 27853), and Candida albicans (ATCC 10231) in primary screening. In addition, we use Staphylococcus aureus (MCC 91731), Pseudomonas aeruginosa (MCC 4438), and Candida albicans (MCC 50319), provided by Alcon Laboratories, Fort Worth, Tex. […] […] Bacterial plating on Petri dishes (Tryptic Soy agar or Saboraud's Dextrose agar) is performed immediately after the designated exposure after neutralization of the test article dilutions in Dey-Engley Broth. Plates are incubated at 37° C., and the numbers of bacteria are counted by direct colony count to quantitate the surviving bacteria as CFU/mL. Positive growth controls are made with sterile 0.9% saline. All compounds are tested three times. The results are tabulated to show the comparison of antimicrobial effectiveness range of the compounds.

[3] = tested on: Staphylococcus aureus (MCC 91731); assay: as above; details: S. aureus MCC 91731 (*), 1 h
Experimental: To determine antimicrobial activity, we use Escherichia coli (ATCC 25922), Staphylococcus aureus (ATCC 29213), Pseudomonas aeruginosa (ATCC 27853), and Candida albicans (ATCC 10231) in primary screening. In addition, we use Staphylococcus aureus (MCC 91731), Pseudomonas aeruginosa (MCC 4438), and Candida albicans (MCC 50319), provided by Alcon Laboratories, Fort Worth, Tex. The microbial cultures are diluted in sterile saline pH 4 to prepare inocula. […] Bacterial plating on Petri dishes (Tryptic Soy agar or Saboraud's Dextrose agar) is performed immediately after the designated exposure after neutralization of the test article dilutions in Dey-Engley Broth. Plates are incubated at 37° C., and the numbers of bacteria are counted by direct colony count to quantitate the surviving bacteria as CFU/mL. Positive growth controls are made with sterile 0.9% saline. All compounds are tested three times. The results are tabulated to show the comparison of antimicrobial effectiveness range of the compounds.

[4] = tested on: mouse fibroblast cells (ATCC CCL-1, L929); assay: Cytotoxicity, WST-8 colorimetric assay; details: 60 min exposure
Experimental: Cytotoxicity is assessed by a colorimetric assay system using the Dojindo™ cell counting kit containing 2-(2-methoxy-4-nitrophenyl)-3-(4-nitrophenyl)—S—(2,4-disulfophenyl)-2H-tetrazolium, monosodium salt (WST-8). In this assay, the WST-8 reagent is bioreduced by cellular dehydrogenases to a formazan product that is highly soluble in tissue culture medium. The orange formazan, which is produced only by live cells, is a direct measure of cell viability and can be read spectrophotometrically (for example, evaluation of a soluble tetrazolium/formazan assay for cell growth and drug sensitivity in culture using human and other tumor cell lines is described by Scudiero D A, Shoemaker R A H, Paul K D, Monks A, Tierney S, Nofziger T H, Currens M J, Seniff D, Boyd M R. Cancer Res. 1988 Sep. 1; 48(17):4827-33). Similar approaches for determining the cell viability are known in the art.
In a standard assay, mouse fibroblast cells (ATCC CCL-1, L929), are cultured in Minimum Essential Medium, α-medium supplemented with 10% heat inactivated fetal bovine serum, L-glutamine, penicillin and streptomycin. Cells are trypsinized and counted under the microscope and seeded at 1.5×10^4 total cells per 100 μL per well of a flat-bottom 96-well plate in order to achieve ˜80% confluence after overnight incubation at 37° C. On the day of the assay, the tissue culture medium is removed and replaced with 30 μL of fresh medium.
Test articles are prepared as 2-fold serial dilutions and 170 μL, of each dilution is added into each of 4-wells (total volume per well=200 μL). The test plate is then returned to the 37° C. incubator for 60 min. Immediately after the exposed time, test article from each well is replaced with 200 μL of fresh media. Plates are incubated at 37° C. for 18-20 hours. The following day growth medium is replaced with 100 μL/well of fresh medium containing 10/100 μL WST-8 reagent. Cells are incubated under growth conditions (5% CO2 at 37° C. humidified incubator), protected from light, until color development is achieved (usually 1-4 hours). Absorbance is read at 450 nm with reference wavelength at 750 nm using Molecular Device SpectraMax M5 plate reader. Untreated or vehicle only treated cells receiving WST-8 reagent serve as positive cell proliferation controls.
The CT50 value for each compound was calculated from the absorbance values (A450-750) and is defined as the concentration of test article that results in survival of 50% of the cells following treatment. The absorbance A450-750 from each well of untreated cells and from each well within the dilution series was measured. To calculate the CT50 for each compound, all compound concentrations were first log-transformed using GraphPad Prism4 (ver 4.03) software. Next, a non-linear regression (curve fit) analysis was performed on all the absorbance data measured from the dilution series, including the absorbance data obtained from wells of the untreated control cells. For each dilution within the dilution series, an average A450-750 was calculated from the four replicate wells. The average A450-750 data were plotted on a y-axis against the log-transformed compound concentration on the x-axis, and the CT50 value calculated from the resulting best-fit curve.

[5] = tested on: Candida albicans (MCC 50319); assay: Antimicrobial activity, minimum biocidal concentration; details: C. albicans MCC 50319 (+), 1 h
Experimental: as §2

[6] = tested on: Staphylococcus aureus (ATCC 29213); assay: Antimicrobial activity, minimum bactericidal/biocidal concentration; details: S. aureus 29213, pH 4 (Sal), 1 h
Experimental: (§3) To determine antimicrobial activity, we use Escherichia coli (ATCC 25922), Staphylococcus aureus (ATCC 29213), Pseudomonas aeruginosa (ATCC 27853), and Candida albicans (ATCC 10231) in primary screening. In addition, we use Staphylococcus aureus (MCC 91731), Pseudomonas aeruginosa (MCC 4438), and Candida albicans (MCC 50319), provided by Alcon Laboratories, Fort Worth, Tex. The microbial cultures are diluted in sterile saline pH 4 to prepare inocula. Test compounds are titrated by stepwise two-fold dilutions in sterile saline pH 4, 1.0×10^5 to 1.0×10^6 Colony Forming Units (CFU)/mL bacteriamicrobe is added to each tube, mixed by gentle vortexing, and then incubated at room temperature for 1 h. Bacterial plating on Petri dishes (Tryptic Soy agar or Saboraud's Dextrose agar) is performed immediately after the designated exposure after neutralization of the test article dilutions in Dey-Engley Broth. Plates are incubated at 37° C., and the numbers of bacteria are counted by direct colony count to quantitate the surviving bacteria as CFU/mL. Positive growth controls are made with sterile 0.9% saline. All compounds are tested three times. The results are tabulated to show the comparison of antimicrobial effectiveness range of the compounds.

[7] = tested on: Escherichia coli (ATCC 25922); assay: as above; details: E. coli 25922, pH 4 (Sal), 1 h
Experimental: as §3

[8] = tested on: Candida albicans (ATCC 10231); assay: Antimicrobial activity, minimum biocidal concentration; details: C. albicans 10231, pH 4 (Sal), 1 h
Experimental: as §3

| Compound | Minimum Biocidal Concentration (MBC) (≧99.9% kill) ([2]; pH 4 (Sal)) | Minimum Biocidal Concentration (MBC) (≧99.9% kill) ([3]; pH 4 (Sal)) | CT50 (concentration that results in survival of 50% of the cells) ([4]; pH 4 (Sal)) | Minimum Biocidal Concentration (MBC) (≧99.9% kill) [6] | Minimum Biocidal Concentration (MBC) (≧99.9% kill) [7] | Minimum Biocidal Concentration (MBC) (≧99.9% kill) [8] | further results |
| --- | --- | --- | --- | --- | --- | --- | --- |
| CC(Cc1ccc(Cl)cc1)(CS(=O)(=O)O)N(Cl)Cl (stereo not shown) [Compound 570, 3-(4-chlorophenyl)-2-(dichloroamino)-2-methylpropane-1-sulfonic acid] |  |  |  |  |  |  | antimicrobial activity [1]: considerable in a μM range; cell toxicity range relative to antimicrobial range (cells): 1000 fold; tolerance of treatment, cell proliferation versus untreated control cells (cells; XTT assay): able to tolerate the treatment and be able to go through normal cell proliferation cycles |
| O=S(=O)(O)CC1(N(Cl)Cl)CCCCCC1 [Compound 601, (1-(Dichloroamino)cycloheptyl)methanesulfonic acid] | 0.5# μg/mL | 0.25* μg/mL |  |  |  |  |  |
| CC1(N(Cl)Cl)CCCCC1S(=O)(=O)O (stereo not shown) [Compound 611, 2-(Dichloroamino)-2-methylcyclohexane-1-sulfonic acid] | 1# μg/mL | 1* μg/mL | 0.25 mM |  |  |  | CT50 (concentration that results in survival of 50% of the cells) ([4]; pH 7 (PBS)): 4.6 mM; Minimum Biocidal Concentration (MBC) (≧99.9% kill) ([2]; pH 7 (PBS)): 32# μg/mL; Minimum Biocidal Concentration (MBC) (≧99.9% kill) ([5]; pH 4 (Sal)): 0.5+ μg/mL; Minimum Biocidal Concentration (MBC) (≧99.9% kill) ([5]; pH 7 (PBS)): 64+ μg/mL; Minimum Biocidal Concentration (MBC) (≧99.9% kill) ([3]; pH 7 (PBS)): 64* μg/mL |
| CC(C)(COC(=O)CCS(=O)(=O)O)N(Cl)Cl [Compound 614, 3-(2-(Dichloroamino)-2-methylpropoxy)-3-oxopropane-1-sulfonic acid] | 4# μg/mL | 1* μg/mL | 0.43 mM |  |  |  | CT50 (concentration that results in survival of 50% of the cells) ([4]; pH 7 (PBS)): 4.6 mM; Minimum Biocidal Concentration (MBC) (≧99.9% kill) ([2]; pH 7 (PBS)): 256# μg/mL; Minimum Biocidal Concentration (MBC) (≧99.9% kill) ([5]; pH 4 (Sal)): 4+ μg/mL; Minimum Biocidal Concentration (MBC) (≧99.9% kill) ([5]; pH 7 (PBS)): 512+ μg/mL; Minimum Biocidal Concentration (MBC) (≧99.9% kill) ([3]; pH 7 (PBS)): 128* μg/mL |
| CC(C)(CS(=O)(=O)O)C(=O)OCC(C)(C)N(Cl)Cl [Compound 625, 3-(2-(Dichloroamino)-2-methylpropoxy)-2,2-dimethyl-3-oxopropane-1-sulfonic acid] |  |  | 2.6 mM | 8 µg/mL | 4 µg/mL | 16 µg/mL |  |
| CNS(=O)(=O)CC(C)(C)N(Cl)Cl [Compound 626, 2-(Dichloroamino)-N,2-dimethylpropane-1-sulfonamide] |  |  |  | 0.5 µg/mL | 4 µg/mL | 8 µg/mL |  |
| CC(=O)NS(=O)(=O)CC(C)(C)N(Cl)Cl [Compound 627, N-(2-(Dichloroamino)-2-methylpropylsulfonyl)acetamide] |  |  |  | 1 µg/mL | 2 µg/mL | 64 µg/mL |  |
| CC(C)(CC(=O)OCCS(=O)(=O)O)N(Cl)Cl [Compound 628, 2-(3-(Dichloroamino)-3-methylbutanoyloxy)ethanesulfonic acid] |  |  |  | 2 µg/mL | 2 µg/mL | 64 µg/mL |  |
| CC(C)(CS(=O)(=O)CCS(=O)(=O)O)N(Cl)Cl [Compound 630, 2-(2-(Dichloroamino)-2-methylpropylsulfonyl)ethanesulfonic acid] |  |  |  | 8 µg/mL | 4 µg/mL | 64 µg/mL |  |
| CC(=O)N1CCC(CS(=O)(=O)O)(N(Cl)Cl)CC1 [Compound 637, (1-Acetyl-4-(dichloroamino)piperidin-4-yl)methanesulfonic acid] |  |  |  | 4 µg/mL | 16 µg/mL | 128 µg/mL |  |
